Patent publication US4181657A, “2-Aminooctahydroindolo[2,3-a]quinolizines useful in treating cardiovascular disorders” (Miles Laboratories, Inc., priority 1978, dated 1980)
Where a name gives a salt, the structure may show the parent alone.

Columns and labels:
Assay type in all cases: in vivo
[1] = system: ventricular arrhythmia produced by chloroform; experiment: Antiarrhythmic activity: protection from chloroform-induced ventricular arrhythmia in mice (Lawson model); settings: mouse; for ED50: ip, 10 min, i.p., 10 min before chloroform, 95% confidence limits in parentheses, read-out: ED50 (95% C.L.); for mice protected of 5 / Antiarrhythmic activity, ED50 symbol (failed screening dose): 31 mg/kg i.p.; for Antiarrhythmic activity, ED50 symbol (failed screening dose): groups of 5 mice
Method: The antiarrhythmic activity of the compounds of this invention was determined in the experimental model described by J. W. Lawson (J. Pharmacol. Exper. Therap. 160:22-31, 1968). Test compounds were administered to groups of 5 mice at an intraperitoneal dose of 31 mg/kg. Ten minutes after injection each mouse was placed in a covered 300 ml glass beaker which contained cotton saturated with chloroform. The animal was observed closely and removed from the beaker immediately after respiratory arrest. The heart was quickly exposed by making an incision through the abdomen, diaphragm, thorax and pericardium for visual inspection of ventricular rate and rhythm. Ventricular contractions were counted for 30 seconds and animals with a rate not exceeding 100 beats per 30 seconds were considered protected from the ventricular arrhythmia produced by chloroform. Compounds protecting at least 3 of the 5 mice were subsequently tested at various doses and the results obtained were used to calculate the mean effective doses (ED50) and 95% confidence limits after the method of Litchfield and Wilcoxon (J. Pharmacol. Exper. Therap. 96:99-113, 1949). Table A presents the results obtained in the antiarrhythmic study.

dog heart in situ = experiment: Antianginal activity: aortic-coronary sinus difference in oxygen (myocardial oxygen consumption) in anesthetized dogs; settings: 1 mg/kg i.v.; for antianginal activity (conclusion in words): based upon comparison with nitroglycerin, named compounds 'particularly'
Method: Angina pectoris is a clinical condition of hypoxia that results from an imbalance in myocardial oxygen supply and demand. A drug reducing oxygen demand is useful in the treatment of angina pectoris, as has been the case with nitroglycerin and the beta-adrenergic blocking agents like propranolol (J. R. Paratt, Advan. Drug Res. 9:103-134, 1974). Accordingly,the antianginal activity of 2-substituted indoloquinolizines was evaluated by assessing their capacity to reduce oxygen consumption by the dog heart in situ. This method allows measurement of the difference in oxygen content of the arterial and venous blood.
Mongrel dogs were anesthetized with pentobarbital and cannulas inserted in the trachea and in a femoral vein for artificial respiration with room air and for injection of test compounds, respectively. Heparin was administered intravenously to prevent blood clotting. The chest was opened at the sternal midline and an additional cannula introduced in the coronary sinus. Samples of blood were obtained from the coronary sinus cannula and from the thoracic aorta by direct puncture of the vessel. Partial pressure of oxygen in the samples was determined with a blood gas analyzer. Test compounds were injected intravenously at a dose of 1 mg/kg; oxygen measurements were made before administration and at 1, 5, 10, 20, 30, 40, 50 and 60 min after administration. One animal was used per test compound. As the standard of comparison, nitroglycerin was administered to a test animal and measurements were made in a similar manner.
Differences between partial pressure values in arterial and venous blood samples were calculated for each measurement. Since coronary sinus blood is representative of the venous effluent from the heart, these differences reflect the consumption of oxygen by the myocardium. Thus, the decrease in arteriovenous oxygen difference produced by the compounds by this invention indicates a reduction in myocardial oxygen consumption.

Systolic Blood Pressure = experiment: Antihypertensive activity: indirect systolic blood pressure in renal hypertensive rats; settings: rat, 31 mg/kg p.o., * in table = statistically significant change from control
Method: Rats were made hypertensive by applying a figure of eight ligature to one kidney and removing the contralateral kidney two weeks later. At least four weeks after the second operation the animals were subjected to indirect systolic blood pressure measurements with an occluding cuff and pulse sensor system applied to the tail. Pressure measurements were made before and 1,2,4,6 and 8 hours after oral administration of the test compounds at a dose of 31 mg/kg. Each compound was tested in 5 or 10 rats. Statistical significance of differences between control and post treatment values was determined by Wilcoxon's signed rank test (F. Wilcoxon and R. A. Wilcox, Some Rapid Approximate Statistical Procedures, Lederle Laboratories, Pearl River, 1964).

Row | SMILES | ED50 [1] [mg/kg] | mice protected of 5 [1] | Arterio-Venous Difference in Oxygen Partial Pressure at 1 min (dog heart in situ) [mmHg] | Arterio-Venous Difference in Oxygen Partial Pressure at 5 min (dog heart in situ) [mmHg] | Arterio-Venous Difference in Oxygen Partial Pressure at 10 min (dog heart in situ) [mmHg] | Arterio-Venous Difference in Oxygen Partial Pressure at 20 min (dog heart in situ) [mmHg] | Arterio-Venous Difference in Oxygen Partial Pressure at 30 min (dog heart in situ) [mmHg] | Arterio-Venous Difference in Oxygen Partial Pressure at 40 min (dog heart in situ) [mmHg] | Arterio-Venous Difference in Oxygen Partial Pressure at 50 min (dog heart in situ) [mmHg] | Arterio-Venous Difference in Oxygen Partial Pressure at 60 min (dog heart in situ) [mmHg] | antianginal activity (conclusion in words) (dog heart in situ) | Change in Systolic Blood Pressure at 1 hr (Systolic Blood Pressure) | Change in Systolic Blood Pressure at 2 hr (Systolic Blood Pressure) | Change in Systolic Blood Pressure at 4 hr (Systolic Blood Pressure) | Change in Systolic Blood Pressure at 6 hr (Systolic Blood Pressure) | Change in Systolic Blood Pressure at 8 hr (Systolic Blood Pressure) | Antiarrhythmic activity, ED50 symbol (failed screening dose) [1]
1 | Brc1ccc(NC2CCN3CCc4c(n(Cc5ccccc5)c5ccccc45)C3C2)cc1.Cl.Cl (stereo not shown) [TR3631, 12-benzyl-2-(4-bromoanilino)-1,2,3,4,6,7,12,12b-octahydroindolo[2,3-a]quinolizine dihydrochloride] | 37 | at least 3 of 5 mice | 26 | 33 | 32 | 30 | 30 | 32 | 31 | 31 | antianginal activity is seen | +10 mmHg | -5 mmHg | +12 mmHg | +3 mmHg | 0 mmHg | –
2 | FC(F)(F)c1cccc(NC2CCN3CCc4c(n(Cc5ccccc5)c5ccccc45)C3C2)c1 (stereo not shown) [TR3633, 12-benzyl-1,2,3,4,6,7,12,12b-octahydroindolo-2-(3-trifluoromethylanilino)[2,3-a]quinolizine dihydrochloride] | – | – | 31 | 35 | 39 | 39 | 36 | 36 | 36 | 38 | antianginal activity is seen | -10 mmHg | +2 mmHg | +8 mmHg | +4 mmHg | +13 mmHg | * (Did not protect 3 of 5 mice and thus was not tested further.)
3 | CC(=O)Nc1ccc(NC2CCN3CCc4c(n(Cc5ccccc5)c5ccccc45)C3C2)cc1.Cl.Cl (stereo not shown) [TR3635, 2-(4-acetamidoanilino)-12-benzyl-1,2,3,4,6,7,12,12b-octahydroindolo-[2,3-a]quinolizine dihydrochloride] | – | – | 24 | 24 | 24 | 23 | 24 | 26 | 25 | 26 | – | -23 mmHg | -23 mmHg | -27 mmHg | -16 mmHg | -10 mmHg | * (Did not protect 3 of 5 mice and thus was not tested further.)
4 | CC(C)NC1CCN2CCc3c(n(Cc4ccccc4)c4ccccc34)C2C1.Cl.Cl.O (stereo not shown) [TR3687, 12-benzyl-2-isopropylamino-1,2,3,4,6,7,12,12b-octahydroindolo[2,3-a]quinolizine dihydrochloride monohydrate] | 19 | at least 3 of 5 mice | 15 | 22 | 23 | 20 | 20 | 20 | 23 | 23 | antianginal activity is seen | -2 mmHg | +16 mmHg | +18 mmHg | +18 mmHg | +9 mmHg | –
5 | Cl.Cl.NC1CCN2CCc3c(n(Cc4ccccc4)c4ccccc34)C2C1.O (stereo not shown) [TR3698, 2-amino-12-benzyl-1,2,3,4,6,7,12,12b-octahydroindolo [2,3-a]-quinolizine dihydrochloride monohydrate] | 42 | at least 3 of 5 mice | 27 | 27 | 27 | 28 | 28 | 29 | 28 | 27 | – | -4 mmHg | -11 mmHg | -3 mmHg | +14 mmHg | +3 mmHg | –
